According to ChEMBL document CHEMBL5665440, “ASAP - In vitro liver microsomal stability” (2024):
Blank lines part the entries; values can stand above or below the molecule they belong to.

Tests used:
[1] = (§1) Human liver microsomal stability of compound in microsomal protein, PBS buffer pH 7.4, NADPH, glucose-6-phosphate and glucose-6-phosphate dehydrogenase media. Aliquotes were taken at 5 time points and after stopping the reaction, supernatants were analyzed using HPLC coupled with a tandem mass spectrometer. The elimination constant, half-life, and intrinsic clearance are determined as results using linear regression analysis.; format: ADME, microsomes, Microsome; details: for half-life / microsomal CLint: liver microsomes; for Remaining / Remaining (without cofactor): microsomes
[2] = as §1, with “Mouse” for “Human”; format: ADME, microsomes, Microsome; details: for half-life / microsomal CLint: liver microsomes; for Remaining / Remaining (without cofactor): microsomes
For Remaining (without cofactor) in this document: time not given here.
For Remaining in this document: time not given here.

SMILES: O=C1Cc2c(cc(F)cc2C(=O)Nc2ccc3c(c2)CNC3)N1
- half-life [1]: > 2.89 h
- microsomal CLint [1]: < 10 µL/min/mg
- Remaining [1]: 99%
- Remaining (without cofactor) [1]: 112.283%
- half-life [2]: > 2.89 h
- microsomal CLint [2]: < 10 µL/min/mg
- Remaining [2]: 87.64%
- Remaining (without cofactor) [2]: 93.435%

SMILES: O=C(Nc1ccc2c(c1)CNC2)c1cc(Cl)cc2[nH]ncc12
- half-life [1]: > 2.89 h
- microsomal CLint [1]: < 10 µL/min/mg
- Remaining [1]: 87.652%
- Remaining (without cofactor) [1]: 96.46%
- half-life [2]: 0.115 h
- microsomal CLint [2]: 243 µL/min/mg
- Remaining [2]: 1.932%
- Remaining (without cofactor) [2]: 102.129%

SMILES: Cn1cc2c(C(=O)Nc3ccc4c(c3)CNC4)cc(F)cc2n1
- half-life [1]: > 2.89 h
- microsomal CLint [1]: < 10 µL/min/mg
- Remaining [1]: 100.772%
- Remaining (without cofactor) [1]: 105.44%
- half-life [2]: 1.53 h
- microsomal CLint [2]: 18.2 µL/min/mg
- Remaining [2]: 76.341%
- Remaining (without cofactor) [2]: 103.175%

SMILES: O=C(Nc1ccc2c(c1)CNC2)c1cc(Cl)cc2ccncc12
- half-life [1]: > 2.89 h
- microsomal CLint [1]: < 10 µL/min/mg
- Remaining [1]: 107.799%
- Remaining (without cofactor) [1]: 101.944%
- half-life [2]: 1.14 h
- microsomal CLint [2]: 24.5 µL/min/mg
- Remaining [2]: 67.731%
- Remaining (without cofactor) [2]: 99.51%

SMILES: Cn1c(=O)[nH]c2c(C(=O)Nc3ccc4c(c3)CNC4)cc(Br)cc21
- half-life [1]: > 2.89 h
- microsomal CLint [1]: < 10 µL/min/mg
- Remaining [1]: 97.872%
- Remaining (without cofactor) [1]: 85.479%
- half-life [2]: 2.23 h
- microsomal CLint [2]: 12.5 µL/min/mg
- Remaining [2]: 78.028%
- Remaining (without cofactor) [2]: 113.254%

SMILES: O=C(Nc1ccc2c(c1)CNC2)c1cccc2[nH]c(C(F)(F)F)cc12
- half-life [1]: 1.97 h
- microsomal CLint [1]: 14.1 µL/min/mg
- Remaining [1]: 78.018%
- Remaining (without cofactor) [1]: 74.757%
- half-life [2]: 2.19 h
- microsomal CLint [2]: 12.7 µL/min/mg
- Remaining [2]: 75.758%
- Remaining (without cofactor) [2]: 108.523%

SMILES: O=C(Nc1cc2c(c(C3=CCS(=O)(=O)CC3)c1)CNC2)c1cc(F)cc2[nH]ncc12
- half-life [1]: > 2.89 h
- microsomal CLint [1]: < 10 µL/min/mg
- Remaining [1]: 98.934%
- Remaining (without cofactor) [1]: 96.094%
- half-life [2]: 0.287 h
- microsomal CLint [2]: 96.9 µL/min/mg
- Remaining [2]: 20.909%
- Remaining (without cofactor) [2]: 113.863%

SMILES: CSc1cc2c(cc1NC(=O)c1cc(F)cc3[nH]ncc13)CNC2
- half-life [1]: > 2.89 h
- microsomal CLint [1]: < 10 µL/min/mg
- Remaining [1]: 88.673%
- Remaining (without cofactor) [1]: 103.344%
- half-life [2]: 0.212 h
- microsomal CLint [2]: 131 µL/min/mg
- Remaining [2]: 11.381%
- Remaining (without cofactor) [2]: 93.133%

SMILES: Cn1ncc2c(C(=O)Nc3ccc4c(c3)CNC4)cc(Cl)cc21
- half-life [1]: > 2.89 h
- microsomal CLint [1]: < 10 µL/min/mg
- Remaining [1]: 91.353%
- Remaining (without cofactor) [1]: 101.456%
- half-life [2]: 1.09 h
- microsomal CLint [2]: 25.5 µL/min/mg
- Remaining [2]: 63.701%
- Remaining (without cofactor) [2]: 92.242%

SMILES: Nc1ccncc1-c1cc(F)cc(C(=O)Nc2ccc3c(c2)CNC3)c1
- half-life [1]: > 2.89 h
- microsomal CLint [1]: < 10 µL/min/mg
- Remaining [1]: 84.663%
- Remaining (without cofactor) [1]: 102.026%
- half-life [2]: > 2.89 h
- microsomal CLint [2]: < 10 µL/min/mg
- Remaining [2]: 87.356%
- Remaining (without cofactor) [2]: 106.991%

Results, then the molecule that gave them:

- half-life [1]: > 2.89 h
- microsomal CLint [1]: < 10 µL/min/mg
- Remaining [1]: 90.707%
- Remaining (without cofactor) [1]: 85.739%
- half-life [2]: > 2.89 h
- microsomal CLint [2]: < 10 µL/min/mg
- Remaining [2]: 102.559%
- Remaining (without cofactor) [2]: 103.618%
SMILES: O=C1Cc2c(cccc2C(=O)Nc2ccc3c(c2)CNC3)N1

- half-life [1]: 1.72 h
- microsomal CLint [1]: 16.2 µL/min/mg
- Remaining [1]: 75.607%
- Remaining (without cofactor) [1]: 97.272%
- half-life [2]: 1.43 h
- microsomal CLint [2]: 19.5 µL/min/mg
- Remaining [2]: 73.231%
- Remaining (without cofactor) [2]: 102.386%
SMILES: CCCCNC(=O)[C@H](Nc1ccc2c(c1)CNC2)c1cc(Cl)cc(C2CC2)c1

- half-life [1]: 0.167 h
- microsomal CLint [1]: 167 µL/min/mg
- Remaining [1]: 6%
- Remaining (without cofactor) [1]: 98%
- half-life [2]: 0.153 h
- microsomal CLint [2]: 181 µL/min/mg
- Remaining [2]: 5%
- Remaining (without cofactor) [2]: 96%
SMILES: O=C(/C=C/c1ccccc1)C(=O)N1CCN(CCc2ccccc2)CC1

- half-life [1]: > 2.89 h
- microsomal CLint [1]: < 10 µL/min/mg
- Remaining [1]: 89.032%
- Remaining (without cofactor) [1]: 105.687%
- half-life [2]: 2.49 h
- microsomal CLint [2]: 11.2 µL/min/mg
- Remaining [2]: 85.983%
- Remaining (without cofactor) [2]: 88.687%
SMILES: Cc1cc([C@H](Nc2ccc3c(c2)CNC3)C(=O)NCC(F)F)cc(C(F)(F)F)c1

- half-life [1]: 2.48 h
- microsomal CLint [1]: 11 µL/min/mg
- Remaining [1]: 87%
- Remaining (without cofactor) [1]: 100%
- half-life [2]: 30 h
- microsomal CLint [2]: 1 µL/min/mg
- Remaining [2]: 103%
- Remaining (without cofactor) [2]: 106%
SMILES: NCc1cccc(NC(=O)[C@@H](NC(=O)OCc2ccccc2)c2ccc(OCc3ccccc3)cc2)c1

- half-life [1]: > 2.89 h
- microsomal CLint [1]: < 10 µL/min/mg
- Remaining [1]: 91.954%
- Remaining (without cofactor) [1]: 107.924%
- half-life [2]: 2.16 h
- microsomal CLint [2]: 12.9 µL/min/mg
- Remaining [2]: 81.928%
- Remaining (without cofactor) [2]: 96.342%
SMILES: COc1cc(Cl)cc([C@H](Nc2ccc3c(c2)CNC3)C(=O)NCC(F)F)c1

- half-life [1]: 1.63 h
- microsomal CLint [1]: 17.1 µL/min/mg
- Remaining [1]: 74.869%
- Remaining (without cofactor) [1]: 95.997%
- half-life [2]: 2.63 h
- microsomal CLint [2]: 10.6 µL/min/mg
- Remaining [2]: 80.041%
- Remaining (without cofactor) [2]: 110.954%
SMILES: CN(c1ccc2c(c1)CNC2)[C@H](C(=O)NCC(F)F)c1cc(Cl)cc(C2CC2)c1

- half-life [1]: > 2.89 h
- microsomal CLint [1]: < 10 µL/min/mg
- Remaining [1]: 91.331%
- Remaining (without cofactor) [1]: 107.659%
- half-life [2]: > 2.89 h
- microsomal CLint [2]: < 10 µL/min/mg
- Remaining [2]: 95.033%
- Remaining (without cofactor) [2]: 94.186%
SMILES: CNC(=O)[C@H](Nc1ccc2c(c1)CNC2)c1cc(Cl)cc2[nH]c(-c3ccccc3)nc12

- half-life [1]: > 2.89 h
- microsomal CLint [1]: < 10 µL/min/mg
- Remaining [1]: 87.708%
- Remaining (without cofactor) [1]: 99.462%
- half-life [2]: 1.64 h
- microsomal CLint [2]: 16.9 µL/min/mg
- Remaining [2]: 73.587%
- Remaining (without cofactor) [2]: 92.469%
SMILES: COc1ccc(-c2nc3c(C(=O)Nc4ccc5c(c4)CNC5)cc(F)cc3[nH]2)nn1

- half-life [1]: 0.263 h
- microsomal CLint [1]: 106 µL/min/mg
- Remaining [1]: 18%
- Remaining (without cofactor) [1]: 94%
- half-life [2]: 0.247 h
- microsomal CLint [2]: 94 µL/min/mg
- Remaining [2]: 16%
- Remaining (without cofactor) [2]: 99%
SMILES: CNC(=O)c1cc(Cl)ccc1NS(=O)(=O)c1ccc(Oc2ccccc2Cl)cc1

- half-life [1]: > 2.89 h
- microsomal CLint [1]: < 10 µL/min/mg
- Remaining [1]: 93.073%
- Remaining (without cofactor) [1]: 104.062%
- half-life [2]: > 2.89 h
- microsomal CLint [2]: < 10 µL/min/mg
- Remaining [2]: 90.033%
- Remaining (without cofactor) [2]: 104.77%
SMILES: COc1cc(C#N)cc([C@H](Nc2ccc3c(c2)CNC3)C(=O)NCC(F)F)c1

- half-life [1]: 7.17 h
- microsomal CLint [1]: 3.88 µL/min/mg
- Remaining [1]: 94.901%
- Remaining (without cofactor) [1]: 89.996%
- half-life [2]: 8.46 h
- microsomal CLint [2]: 2.73 µL/min/mg
- Remaining [2]: 103.125%
- Remaining (without cofactor) [2]: 96.808%
SMILES: NCc1cccc(CNC(=O)[C@@H](NC(=O)OCc2ccccc2)c2ccc(OCc3ccccc3)cc2)c1
